Consider 14 molecules from patent US5491166A, “Inhibitors of HIV protease useful for the treatment of AIDS” (Eli Lilly and Company, priority 1992, dated 1996).

One test deals with T1, HIV-1 protease (Human immunodeficiency virus type 1 group M subtype B, UniProt P04585).
T1 construct: Purified HIV-1 protease was obtained as described above; made in house; host or cells: E. coli K12 L507/pHP10D
The test is described as follows: biochemical. The conditions noted are these: All values normalized to a positive control; 1 h pre-incubation, 16 h with substrate at room temperature; *concentration of the compound was not increased above the reported concentration. The method, then: A culture of E. coli K12 L507/pHP10D was grown to mid-log phase at 32° C. in LB media containing 12.5 μg/ml tetracycline. The cultivation temperature was quickly elevated to 40° C. to induce gene expression, and the cells were allowed to grow for 2.5 hours at this temperature before the culture was quickly chilled on ice. The cells were centrifuged and the cell pellet was resuspended in 20 mL 50 mmol MES buffer (pH 6.0) containing 1 mmol EDTA, 1 mmol DTT, 1 mmol PMSF and 10% glycerol ("Buffer A"). Cells were lysed by sonication using a Fischer Model 300 Dismembrator and a microtip probe. Following centrifugation at 27,000×g, the supernatant was diluted to a total volume of 60 mL with Buffer A and loaded onto a 2.0×19 cm QAE-Sepharose column (1 mL/min, 4° C.), that had been equilibrated in Buffer A. The column was washed isocratically for 180 min and then eluted with a gradient eluent of 0-1.0M sodium chloride in Buffer A over 120 min. Enzymatic activity was measured by HPLC using the synthetic peptide SQNYPIV as described in Margolin et al., Biochem, Biophys. Res. Commun., 167, 554-560 (1990); the production of the p1 peptide (SQNY) was measured.
The active fractions were combined, made 1.2M in ammonium sulfate, and applied to a 2.0×18 cm hexyl agarose column that had been equilibrated in Buffer A containing 1.2M ammonium sulfate. The sample was loaded at a flow rate of 1 mL/min at 4° C., washed with the equilibration buffer for 240 min (1 mL/min) and then eluted using a reverse linear gradient of 1.2-0M ammonium sulfate in Buffer A for 120 min at the same flow rate. The column was then washed isocratically in Buffer A for 120 min.
The active fractions were combined, concentrated to 10 mL using an Amicon stirred cell with a YM-10 membrane and then applied to a MonoS cation exchange column (1.0×10 cm) that had been equilibrated in Buffer A. The sample was loaded at a flow rate of 1 mL/min at 25° C. After washing isocratically for 30 min, the protease was eluted using a linear gradient of 0-0.45M sodium chloride in Buffer A over 40 min.. The column was washed isocratically in Buffer A containing 0.45M sodium chloride for 30 min.
The active fractions were combined and concentrated to 200 μL using an Amicon stirred cell and a YM-10 membrane and then the protease was applied to a Superose 6 size exclusion column equilibrated in Buffer A containing 0.1M sodium chloride.
The purified peptide was labeled with a fluorescent marker at the C-terminal end for use in the Pandex assay. N^α -Biotin-[…]OH (1.206 g, 0.936 mmol) was dissolved in 100 mL of 0.1M sodium borate, pH 9.5. Then, a solution of 3 g (7.7 mmol) of fluorescein isothiocyanate in 15 mL dimethyl sulfoxide was added to the reaction mixture in 10 equal portions over two hours. The resulting mixture was allowed to react for one hour after the final addition. The solution was adjusted to pH 3 using 5N HCl, resulting in the formation of a precipitate which was removed by centrifugation.
The following buffers and solutions are used in the Fluorescence HIV-1 Protease Inhibitor Assay:
0.05M 4-morpholineethane sulfonic acid, pH 5.5
0.1% solution of Fluoricon Avidin Assay Particles (Avidin conjugated to solid polystyrene beads, 0.6-0.8 microns in diameter in TBSA Buffer
27 IU/mL of purified HIV-1 protease in MES-ALB buffer (1 IU equals the amount of enzyme required to hydrolyze 1 μmole of substrate per minute at 37° C.
To each well of a round bottom, 96-well plate is added 20 μL of the Enzyme Solution followed by 10 μL of the compound to be evaluated in a 20% aqueous dimethylsulfoxide solution. Purified HIV-1 protease was obtained as described above.
As to `CC(C)(C)NC(=O)c1ccccc1C[C@@H](O)[C@H](Cc1ccccc1)NC(=O)[C@@H](CC(=O)OCc1ccccc1)NC(=O)OCc1ccccc1` (relative stereo) [Example 9, [2R-(2R *, 3S*, 6R*)]-N-t-Butyl-2-[2-hydroxy-3-phenylmethyl-4-aza-5-oxo-6-N(benzyloxycarbonyl)amino-7-benzyloxycarbonyl]heptyl benzamide], the “Fluorescence Assay IC50” value is greater than 1 µg/mL. With “[2R-(2R*, 3S*, 6S*)]-N-t-Butyl-2-[2-hydroxy-3-phenylmethyl-4,7-diaza-5,8-dioxo-6-cyanomethyl-9-N(methyl)aza-10-quinolin-2-yl]decyl benzamide [Example 4]”, the “Fluorescence Assay IC50” value was 0.0012 µg/mL.

Still in this test, the particulars now being: read-out: Fluorescence Assay IC8.
For the molecule `CC(C)(C)NC(=O)c1ccccc1C[C@@H](O)[C@H](Cc1ccccc1)NC(=O)[C@@H](CC(=O)OCc1ccccc1)NC(=O)OC(C)(C)C` [Example 11, [2R-(2R *, 3S*, 6S*)]-N-t-butyl-2-[2-hydroxy-3-phenylmethyl-4-aza-5-oxo-6-N(t-butoxycarbonyl)amino-7-benzyloxycarbonyl]heptyl benzamide], the IC8 is 1 µg/mL.

The test is the same for the next values; noted with them: read-out: Fluorescence Assay IC50 (converted).
Turning to `CC(C)(C)NC(=O)c1ccccc1C[C@@H](O)[C@H](Cc1ccccc1)NC(=O)[C@H](CC#N)NC(=O)NCc1cccc2ccccc12` (relative stereo) [Example 1, [2R-(2R*, 3S*, 6S*)]-N-t-Butyl-2-[2-hydroxy-3-phenylmethyl-4,7,9-triaza-5,8-dioxo-6-cyanomethyl-10-naphth-1-yl]decyl benzamide], the half-maximal inhibitory concentration (IC50) is 0.645 nM. Turning to `CN1Cc2ccccc2CC1C(=O)N[C@@H](CC#N)C(=O)N[C@@H](Cc1ccccc1)[C@H](O)Cc1ccccc1C(=O)NC(C)(C)C` (relative stereo) [Example 3, R-(2R *, 3S*, 6S*)-N-t-Butyl-2-[2-hydroxy-3-phenylmethyl-4,7-diaza-5,8-dioxo-6-cyanomethyl-8-(2-methyl-1,2,3,4-tetrahydroisoquinolin-3-yl]octylbenzamide], the IC50 is 89.5 nM. Same read-out and setting: then `CN(C)CCNC(=O)C[C@H](NC(=O)c1ccc2ccccc2n1)C(=O)N[C@@H](Cc1ccccc1)[C@H](O)Cc1ccccc1C(=O)NC(C)(C)C` (relative stereo) [Example 15, [2R -(2R*,3S*,6S*)]-N-t-Butyl-2-[2-hydroxy-3-phenylmethyl-4-aza-5,8-dioxo-6-N(quinolin-2-ylcarbonyl)amino-8-N(2-(N, N-dimethylamino)ethyl)amino]octyl benzamide], with 2.79 nM. The same measure, in the same setting: then `CC(C)(C)NC(=O)c1ccccc1C[C@@H](O)[C@H](Cc1ccccc1)NC(=O)[C@H](CC#N)NC(=O)c1ccc2ccccc2n1` [Example 2, [2R-(2R *, 3S*, 6S*)]-N-t-Butyl-2-[2-hydroxy-3-phenylmethyl-4,7-diaza-5,8-dioxo-6-cyanomethyl-8-quinolin-2-yl]octyl benzamide], with 1.86 nM. For the molecule `CC(C)(C)NC(=O)c1ccccc1C[C@@H](O)[C@H](Cc1ccccc1)NC(=O)[C@H](CC(=O)OCc1ccccc1)NC(=O)OCc1ccccc1` [Example 6, [2R-(2R*, 3S*, 6S*)]-N-t-Butyl-2-[2-hydroxy-3-phenylmethyl-4-aza-5-oxo-6-N(benzyloxycarbonyl)amino-7-benzyloxycarbonyl]heptyl benzamide], the half-maximal inhibitory concentration (IC50) is 10.6 nM.

`CC(C)(C)NC(=O)c1ccccc1C[C@@H](O)[C@H](Cc1ccccc1)NC(=O)[C@H](CC(=O)OCc1ccccc1)NC(=O)c1ccc2ccccc2n1` [Example 7, [2R-(2R*,3S*,6S*)]-N-t-Butyl-2-[2-hydroxy-3-phenylmethyl-4-aza-5-oxo-6-N(quinolin-2-ylcarbonyl)amino-7-benzyloxycarbony]heptyl benzamide]: the IC50 was 0.856 nM.

In the case of `CC(C)(C)NC(=O)c1ccccc1C[C@@H](O)[C@H](Cc1ccccc1)NC(=O)[C@@H](CC(=O)OCc1ccccc1)NC(=O)c1ccc2ccccc2n1` [Example 8, [2R-(2R*,3S*,6R*)]-N-t-Butyl-2-[2-hydroxy-3-phenylmethyl-4-aza-5-oxo-6-N(quinolin-2-ylcarbonyl)amino-7-benzyloxycarbonyl]heptyl benzamide], the IC50 was greater than 1430 nM. On the same count and under the same terms, then `CC(C)(C)NC(=O)c1ccccc1C[C@@H](O)[C@H](Cc1ccccc1)NC(=O)[C@H](CC(=O)OCc1ccccn1)NC(=O)c1ccc2ccccc2n1` [Example 10, [2R-(2R*,3S*,6S*)]-N-t-Butyl-2-[2-hydroxy-3-phenylmethyl-4-aza-5-oxo-6-N(quinolin-2-ylcarbonyl)amino-7-(pyrid-2-ylmethoxycarbonyl)]heptyl benzamide], with 1.85 nM; and `CONC(=O)C[C@H](NC(=O)c1ccc2ccccc2n1)C(=O)N[C@@H](Cc1ccccc1)[C@H](O)Cc1ccccc1C(=O)NC(C)(C)C` [Example 12, [2R-(2R*, 3S*, 6S*)]-N-t-Butyl-2-[2-hydroxy-3-phenylmethyl-4-aza-5-oxo-6-N(quinolin-2-ylcarbonyl)amino-8-N(methoxy)carbamoyl]heptyl benzamide], with 0.782 nM; and `CC(C)(C)NC(=O)c1ccccc1C[C@@H](O)[C@H](Cc1ccccc1)NC(=O)[C@H](CC(=O)NN)NC(=O)c1ccc2ccccc2n1` [Example 13, [2R-(2R*, 3S*, 6S*)]-N-t-Butyl-2-[2-hydroxy-3-phenylmethyl-4-aza-5,8-dioxo-6-N(quinolin-2-ylcarbonyl)amino-8-hydrazino]octyl benzamide], with 1.12 nM. Take `CC(C)(C)NC(=O)c1ccccc1C[C@@H](O)[C@H](Cc1ccccc1)NC(=O)[C@H](CS(N)(=O)=O)NC(=O)c1ccc2ccccc2n1` [Example 14, [2R-(2R*,3S*,6R*)]-N-t-Butyl-2-[2-hydroxy-3-phenylmethyl-4-aza-5-oxo-6-N(quinolin-2-ylcarbonyl)amino-7-aminosulfonyl]heptyl benzamide]: the IC50 was 4.18 nM.

By IC50 is commonly meant the concentration that gives 50% inhibition.
